Patent US20240325747A1, “COMPOSITIONS AND METHODS OF A CONCOMITANT THERAPY OF ALTERNATING ELECTRIC FIELDS AND N-CADHERIN INHIBITOR” (NOVOCURE GMBH, priority 2023, published 2024)

Assays:
[1] = tested on: H1299 cells; test: Calcium switch assay, immunoblot of AKT phosphorylation (Ser473) after TTFields; assay type: cell-based; conditions: H1299, TTFields 150 kHz 72 h then 4 mM EGTA; compared with TTFields-treated cells under normal calcium levels
Protocol: (§1) FIGS. 10A-10E show N-cadherin engagement functions upstream of AKT activation during long-term TTFields application. (FIG. 10A) H1299 cells were either left untreated or treated with TTFields (150 kHz) for 72 h. Left panel: Confocal fluorescence microscopy images of N-cadherin in control and TTFields-treated cells are shown. Blue, DAPI-stained DNA; Red, F-actin; Green, N-cadherin; Scale bars, 20 μm. Right panel: Quantification of N-cadherin expression, shown as mean±SEM. *p<0.05; unpaired t-test: N≥2. (FIGS. 10B, 10C) A2780 and H1299 cells were treated with TTFields (200 kHz and 150 kHz, respectively) for 72 h and then: left untreated (No EGTA), treated with 4 mM EGTA (EGTA), or treated with 4 mM EGTA subsequently replaced with serum-free calcium-containing medium (EGTA/Ca^+2). (FIG. 10B) Representative phase-contrast images. Scale bars, 100 μm. (FIG. 10C) Upper panels: Samples were immunoblotted for AKT, pAKT (Ser473), and GAPDH. […]
(§2) NSCLC cells (FIGS. 4—H1299 cells) or ovarian cancer cells (FIGS. 5—A2780 cells) treated with TTFields for 72 hours were incubated with […] EGTA to disrupt cell-cell contacts. […] Relative protein densities of Akt on the Ser-473 ratio were determined. […]

[2] = tested on: A2780 cells; test: as above; assay type: cell-based; conditions: A2780, TTFields 200 kHz 72 h then 4 mM EGTA; compared with TTFields-treated cells under normal calcium levels
Protocol: as §1, §2

[3] = tested on: H1299 cells; test: Calcium switch assay, cell morphology (phase-contrast); assay type: cell-based; conditions: H1299, control and TTFields (72 h) conditions, 4 mM EGTA
Protocol: as §1, with “GAPDH. Lower panels: Densitometric analysis (arbitrary units normalized to the expression of the housekeeping protein GAPDH), is shown as mean±SEM. *p<0.05, and *** p<0.001; one-way ANOVA followed by Tukey's post hoc test: N≥2.” for “GAPDH.”

[4] = tested on: A2780 cells; test: as above; assay type: cell-based; conditions: A2780, control and TTFields (72 h) conditions, 4 mM EGTA
Protocol: as §1, with “GAPDH. Lower panels: Densitometric analysis (arbitrary units normalized to the expression of the housekeeping protein GAPDH), is shown as mean±SEM. *p<0.05, and *** p<0.001; one-way ANOVA followed by Tukey's post hoc test: N≥2.” for “GAPDH.”

[5] = tested on: tumor microenvironment; conditions: systemic ADH-1; cited from earlier work
[6] = tested on: angiogenesis; conditions: cited from earlier work

Row | Molecule | AKT phosphorylation (Ser473) [1] | AKT phosphorylation (Ser473) [2] | Cell morphology [3] | Cell morphology [4] | Tumor growth [5] | Angiogenesis [6]
1 | O=C(O)CN(CCOCCOCCN(CC(=O)O)CC(=O)O)CC(=O)O [EGTA, ethylene glycol-bis (β-aminoethyl ether)-N,N,N′,N′-tetraacetic acid] | reduced phosphorylation of AKT | reduced phosphorylation of AKT | rounded morphology | rounded morphology |  | 
2 | N-Ac-CHAVC-NH2 (also: cyclic, type not given here) [ADH-1, cyclic peptide N-cadherin antagonist (CHAVC] |  |  |  |  | modulate tumor growth through activation of the AKT pathway | inhibit angiogenesis
